Controlling value data for 1 compound are collected here from patent US12660820B2, “Heterocyclic compound and harmful arthropod-controlling composition including same” (SUMITOMO CHEMICAL COMPANY, LIMITED, priority 2020, dated 2026).

The assay concerns cotton aphids (Aphis gossypii). Briefly: Test Method 9: foliar spray on cucumber seedling infested with cotton aphids (Formulation Example 5). The following applies: Test Example 9-1; 200 ppm; 5 days after spraying. The format is in vivo. As for the experimental part:
Cucumber (Cucumis sativus) seedling (on the developmental stage of the second true leaf) is planted in a container and approximately 30 cotton aphids (Aphis gossypii) (all developmental stages of life) are released onto the leaves of the cucumber. After 1 day, the diluted solutions are sprayed to the seedling at a ratio of 10 mL/seedling. Further, after 5 days, the number of the surviving insects is examined and the controlling value is calculated by the following equation. Controlling value (%)={1−(Cb×Tai)/(Cai×Tb)}×100 wherein the symbols in the formula represent the following descriptions. • Cb: Number of the test insects in untreated group; • Cai: Number of the surviving insects at the time of the investigation in untreated group; • Tb: Number of the test insects in treated group; • Tai: Number of the surviving insects at the time of the investigation in treated group; Here the “untreated group” represents a group where the similar treatment procedure to that of the treated group except not using the test compound is done.

Compound `CCS(=O)(=O)c1c(-c2cnc3cc(C(F)(F)F)ccn3c2=O)nc2cc(C(F)(F)F)ccn12` [compound 6] yielded a Controlling value of at least 90%.
